Values quoted from earlier work, collected in US10500190B1, “Sublingual or buccal administration of melatonin and/or valerian” (priority 2019, dated 2019).

Tests used:
[1] = not given; remark: listed apart in the source

For `COc1ccc2[nH]cc(CCNC(C)=O)c2c1` [melatonin, N-acetyl-5-methoxytrypta mine], the “solubility in water or other aqueous biological fluids” value is given as “poorly soluble”, the “variation of peak plasma concentrations” value ([1]; oral) is given as “over 20 fold” and the “time after administration for the blood plasma concentration of melatonin to reach its peak” value ([1]; oral preparations) is given as “more than 30 minutes”.
